Tested on: germline IgE heavy chain transcription (εGT)
Experiment: Suppression of IL-4-induced germline IgE heavy chain transcript (εGT) expression in DND39 cells (RT-PCR, blot)
Format: cell-based, human
Conditions: IL-4 (25 U/ml), chrysin at various concentrations, 48 hours
Procedure: IL-4 (25 U/ml) and chrysin at various concentrations were added to human mature B cell line DND39 cells and then the cells were incubated for 48 hours. mRNA was collected from the cells and cDNA was synthesized. An RT-PCR amplification product was electrophoresed on an agarose gel and transferred onto a membrane and εGT was thus detected. GAPDH (glyceraldehyde-3-phosphate dehydrogenase) was employed as a control. For each concentration or the control, the blot in the right side indicates the result in a 1/10 amount.
As described above, the inhibition of the εGT expression brings about fundamental suppression of IgE production. It is known that human mature B cell line DND39 expresses εGT in response to a stimulus by IL-4. Thus, DND39 cells were incubated in the presence of IL-4 and chrysin and the effect of chrysin on the εGT expression was examined.
Human mature B cell line DND39 was subcultured in a RPMI 1640 medium (Nissui), to which 5% of FBS (Intergen) had been added, at 37° C. and 5% CO2 vapor saturation and maintained therein. […]
The density of DND39 cells was adjusted to 2×10^5 cells/mL and incubated in the presence of IL-4 (25 U/mL) and chrysin at each concentration. […] Then, the RNA concentration was measured using a spectrophotometer Ultrospec 3000 (Pharmacia Biotech, Piscatway, N.J.). […]

In the case of `O=c1cc(-c2ccccc2)oc2cc(O)cc(O)c12` [Chrysin, 5,7-dihydroxyflavone], the εGT expression is reported as “concentration-dependently suppressed”.

From US20080262080A1, “Allergy Suppressive Agent” (KYUSHU UNIVERSITY, NATIONAL UNIVERSITY CORPORATION, priority 2004, published 2008)
